This passage reports IC50 results from patent US20240083900A1, “PYRAZOLO[1,5-A]PYRAZINE DERIVATIVES AS BTK INHIBITORS” (BIOGEN MA INC., priority 2020, published 2024).

In one test the target is BTK (Homo sapiens (Human), UniProt Q06187). The test can be described thus: In Vitro BTK Kinase Assay: Btk-PolyGAT-LS Assay. It is filed as biochemical. Conditions: BTK enzyme 0.25 nM, ATP 10 μM, polyGAT 100 nM, 30 minutes incubation, TRF readout; read-out: IC50. In a few lines:
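Human BTK activity was measured with final 10 μM ATP and 100 nM polyGAT substrate in pH 7.5 Tris buffer with 10 mM MgCl2, DTT, Triton X-100 and casein.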

The test system of test [1] is CD69 expression on CD19+ B cells in human whole blood stimulated with anti-human IgD. The test can be described thus: In Vitro whole blood CD69 Assay. It is filed as cell-based. The following applies: Homo sapiens, B-cell.
Setting [2] is: human heparinized whole blood, anti-human IgD stimulation overnight, percentage of CD19+ B cells expressing CD69, flow cytometry.
[3] abbreviates: human heparinized whole blood, anti-human IgD stimulation overnight, percentage of CD19+ B cells expressing CD69, flow cytometry, read-out: IC50.

Where two headings read alike, the source gives them in different places.

By IC50 is commonly meant the concentration needed to halve the response being measured.

BTK, sequence (Q06187 whole entry): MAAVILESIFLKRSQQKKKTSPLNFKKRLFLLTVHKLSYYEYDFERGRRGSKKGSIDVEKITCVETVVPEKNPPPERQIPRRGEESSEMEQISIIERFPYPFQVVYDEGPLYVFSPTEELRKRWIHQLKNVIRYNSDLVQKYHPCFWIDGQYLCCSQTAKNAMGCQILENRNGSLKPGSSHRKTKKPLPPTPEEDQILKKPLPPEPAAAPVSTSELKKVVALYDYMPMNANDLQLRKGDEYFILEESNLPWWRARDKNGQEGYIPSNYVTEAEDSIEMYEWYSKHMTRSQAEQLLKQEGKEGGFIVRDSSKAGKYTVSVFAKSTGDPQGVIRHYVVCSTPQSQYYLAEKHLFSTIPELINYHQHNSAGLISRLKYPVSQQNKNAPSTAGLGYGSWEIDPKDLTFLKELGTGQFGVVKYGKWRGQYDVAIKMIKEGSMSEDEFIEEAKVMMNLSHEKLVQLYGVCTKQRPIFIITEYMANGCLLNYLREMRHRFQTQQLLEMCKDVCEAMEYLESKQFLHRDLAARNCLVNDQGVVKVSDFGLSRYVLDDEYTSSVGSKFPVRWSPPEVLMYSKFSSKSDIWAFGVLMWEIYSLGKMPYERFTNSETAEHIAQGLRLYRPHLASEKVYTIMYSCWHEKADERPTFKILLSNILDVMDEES

`C=CC(=O)N(C)[C@H]1C[C@@](C)(Oc2nc(-c3cnn(C)c3)cn3nccc23)C1(C)C` (single isomer, unassigned) [Example 140]: the IC50 at BTK is below 1 nM; in test [1] (setting [2]), below 1000 nM. On to `C=CC(=O)N(C)[C@@H]1C[C@@](C)(Oc2nc(-c3cnn(C)c3)cn3nccc23)[C@H]1C` (single isomer, unassigned) [Example 108], for which the values for the IC50 (on BTK; in test [1] (setting [2])) were below 1 nM and below 1000 nM, respectively. Regarding `C#CC(=O)N(C)C1CCCN(c2nc(-c3cnn(C)c3)cn3nccc23)C1` (centres unmarked) [Example 24, N-methyl-N-[1-[6-(1-methylpyrazol-4-yl)pyrazolo[1,5-a]pyrazin-4-yl]-3-piperidyl]prop-2-ynamide], the figures for the IC50 (at BTK; in test [1] (setting [3])) were 10 to 1000 nM and above 10000 nM, respectively.

For `C=CS(=O)(=O)N1CCC[C@@H](Oc2nc(-c3cnn(C)c3)cn3nccc23)CC1` [Example 28, (R)-6-(1-methyl-1H-pyrazol-4-yl)-4-((1-(vinylsulfonyl)azepan-4-yl)oxy)pyrazolo[1,5-a]pyrazine], the IC50 is below 1 nM at BTK and below 1000 nM in test [1] (setting [3]). The like results for `C=CC(=O)Nc1cccc(Oc2nc(-c3cnn(C)c3)cc3nccn23)c1` [Example 43] were, in that order, 1 to 10 nM and below 1000 nM. For `C#CC(=O)N1CCC[C@H](Oc2nc(-c3cnn(C)c3)cn3nccc23)CC1` [Example 31, (S)-1-(4-((6-(1-methyl-1H-pyrazol-4-yl)pyrazolo[1,5-a]pyrazin-4-yl)oxy)azepan-1-yl)prop-2-yn-1-one], in that order: below 1 nM and 1000 to 10000 nM. With `C=CC(=O)N(C)[C@H]1C[C@](C)(Oc2nc(-c3cnn(C)c3)cn3nccc23)[C@@H]1C` (single isomer, unassigned) [Example 109], the results for the IC50 (at BTK; in test [1] (setting [2])) were 1 to 10 nM and below 1000 nM, respectively.

Consider `C=CC(=O)N1CCC[C@@H](Oc2nc(-c3cn(C)nc3C)cn3ncnc23)CC1` [Example 70, 1-[(4R)-4-[[6-(1,3-dimethylpyrazol-4-yl)-[1,2,4]triazolo[1,5-a]pyrazin-8-yl]oxy]azepan-1-yl]prop-2-en-1-one], for which the IC50 fell in the range of 1 to 10 nM at BTK and 1000 to 10000 nM in test [1] (setting [3]).

On to `C=CC(=O)N(C1CC1)[C@H]1C[C@@H](Oc2nc(-c3cnn(C)c3)cn3nccc23)C1` [Example 101, N-cyclopropyl-N-((cis)-3-((6-(1-methyl-1H-pyrazol-4-yl)pyrazolo[1,5-a]pyrazin-4-yl)oxy)cyclobutyl)acrylamide], for which the IC50 was below 1 nM at BTK and 1000 to 10000 nM in test [1] (setting [3]).

Take `C=CC(=O)N1CCCC[C@H](Oc2nc(-c3cnn(C)c3)cn3nccc23)C1` [Example 55, (S)-1-(3-((6-(1-methyl-1H-pyrazol-4-yl)pyrazolo[1,5-a]pyrazin-4-yl)oxy)azepan-1-yl)prop-2-en-1-one]: the IC50 was 10 to 1000 nM on BTK and above 10000 nM in test [1] (setting [3]). The like results for `CC#CC(=O)N(C)[C@@H]1CCC[C@H](Oc2nc(-c3cnn(C)c3)cn3nccc23)C1` [Example 178, N-methyl-N-((1R,3S)-3-((6-(1-methyl-1H-pyrazol-4-yl)pyrazolo[1,5-a]pyrazin-4-yl)oxy)cyclohexyl)but-2-ynamide] were, in that order, 10 to 1000 nM and 1000 to 10000 nM. For `C=CC(=O)N1CCOCC1CCOc1cc(-c2cnn(C)c2)cn2nccc12` (centres unmarked) [Example 81, 1-(3-(2-((6-(1-methyl-1H-pyrazol-4-yl)pyrazolo[1,5-a]pyridin-4-yl)oxy)ethyl)morpholino)prop-2-en-1-one], the IC50 at BTK lay in the range of 1 to 10 nM; in test [1] (setting [3]), 1000 to 10000 nM. The like results for `CC#CC(=O)N(C)[C@@H]1CC[C@H]2C[C@@]2(Oc2nc(-c3cnn(C)c3)cn3nccc23)C1` (single isomer, unassigned) [Example 115] were, in that order, 1 to 10 nM and 1000 to 10000 nM. With `C=CC(=O)N1CC[C@H]2[C@@H]1C[C@@]2(C)Oc1nc(-c2cnn(C)c2)cn2nccc12` [Example 191, 1-((1S,5S,6R)-6-methyl-6-((6-(1-methyl-1H-pyrazol-4-yl)pyrazolo[1,5-a]pyrazin-4-yl)oxy)-2-azabicyclo[3.2.0]heptan-2-yl)prop-2-en-1-one], the IC50 in test [1] (setting [3]) lay in the range of 1000 to 10000 nM. Still for that read-out and setting: as for `C=CC(=O)N1CC[C@@H]2[C@H]1C[C@]2(C)Oc1nc(-c2cnn(C)c2)cn2nccc12` [Example 190, 1-((1R,5R,6S)-6-methyl-6-((6-(1-methyl-1H-pyrazol-4-yl)pyrazolo[1,5-a]pyrazin-4-yl)oxy)-2-azabicyclo[3.2.0]heptan-2-yl)prop-2-en-1-one], the figure is below 1000 nM; as for `C=CC(=O)N1CCC(Oc2nc(-c3cnn(C)c3)cn3nccc23)CC1` [Example 2, 1-(4-((6-(1-methyl-1H-pyrazol-4-yl)pyrazolo[1,5-a]pyrazin-4-yl)oxy)piperidin-1-yl)prop-2-en-1-one], above 10000 nM. In the case of `C=CC(=O)N1C[C@H]2C[C@](C)(Oc3nc(-c4cnn(C)c4)cn4nccc34)[C@H]2C1` [Example 200, 1-((1S,5R,6S)-6-methyl-6-((6-(1-methyl-1H-pyrazol-4-yl)pyrazolo[1,5-a]pyrazin-4-yl)oxy)-3-azabicyclo[3.2.0]heptan-3-yl)prop-2-en-1-one], the IC50 in test [1] (setting [3]) was below 1000 nM. As for `C=CC(=O)N(C)[C@H]1CCC[C@@H](Oc2nc(-c3cnn(C)c3)cn3nccc23)C1` [Example 175, N-methyl-N-((1S,3R)-3-((6-(1-methyl-1H-pyrazol-4-yl)pyrazolo[1,5-a]pyrazin-4-yl)oxy)cyclohexyl)acrylamide], in test [1] (setting [3]), the half-inhibitory concentration (IC50) was below 1000 nM. For the compound `C=CC(=O)N1C[C@@H]2[C@@H](COc3nc(-c4cnn(C)c4)cn4nccc34)[C@@H]2C1` [Example 214, 1-((1R,5S,6r)-6-(((6-(1-methyl-1H-pyrazol-4-yl)pyrazolo[1,5-a]pyrazin-4-yl)oxy)methyl)-3-azabicyclo[3.1.0]hexan-3-yl)prop-2-en-1-one], the IC50 in test [1] (setting [3]) was below 1000 nM. `C=CC(=O)N(C)[C@H]1C[C@@](C)(Oc2nc(-c3cnn(C)c3)cn3nccc23)C1` [Example 79, N-methyl-N-((1s,3s)-3-methyl-3-((6-(1-methyl-1H-pyrazol-4-yl)pyrazolo[1,5-a]pyrazin-4-yl)oxy)cyclobutyl)acrylamide] gave an IC50 in test [1] below 1000 nM. For the compound `C=CC(=O)N1C[C@@H]2C[C@H](Oc3nc(-c4cnn(C)c4)cn4nccc34)C[C@H]1C2` [Example 168, 1-((1S,3S,5R)-3-((6-(1-methyl-1H-pyrazol-4-yl)pyrazolo[1,5-a]pyrazin-4-yl)oxy)-6-azabicyclo[3.2.1]octan-6-yl)prop-2-en-1-one], in test [1] (setting [3]), the concentration for half-maximal inhibition (IC50) was 1000 to 10000 nM. On the same count and under the same terms, as for `C=CC(=O)N1C[C@H]2C[C@@H](Oc3nc(-c4cnn(C)c4)cn4nccc34)C[C@@H]1C2` [Example 167, 1-((1R,3R,5S)-3-((6-(1-methyl-1H-pyrazol-4-yl)pyrazolo[1,5-a]pyrazin-4-yl)oxy)-6-azabicyclo[3.2.1]octan-6-yl)prop-2-en-1-one], the figure is below 1000 nM.

Turning to `C=CC(=O)N(C)[C@@H]1CCC[C@H](Oc2nc(-c3cnn(C)c3)cn3nccc23)C1` [Example 176, N-methyl-N—((1R,3S)-3-((6-(1-methyl-1H-pyrazol-4-yl)pyrazolo[1,5-a]pyrazin-4-yl)oxy)cyclohexyl)acrylamide], in test [1] (setting [3]), the 50% inhibitory concentration (IC50) was in the range of 1000 to 10000 nM. In the case of `C=CC(=O)N(C)[C@H]1C[C@@](C)(Oc2nc(-c3cnn(C)c3)cc3nccn23)C1` [Example 236, N-methyl-N-((1s,3s)-3-methyl-3-((7-(1-methyl-1H-pyrazol-4-yl)imidazo[1,2-c]pyrimidin-5-yl)oxy)cyclobutyl)acrylamide], the IC50 in test [1] was below 1000 nM.

On to `C=CC(=O)N(C)[C@H]1C[C@@H](Oc2nc(-c3cnn(C)c3)cn3nccc23)C1` [Example 215, N-methyl-N-((cis)-3-((6-(1-methyl-1H-pyrazol-4-yl)pyrazolo[1,5-a]pyrazin-4-yl)oxy)cyclobutyl)acrylamide], for which the IC50 in test [1] (setting [3]) lay in the range of 1000 to 10000 nM. The same measure, in the same setting: the same measure for `C=CC(=O)N(C)[C@H]1CC[C@@H](Oc2nc(-c3cnn(C)c3)cn3nccc23)C1` [Example 145, N-methyl-N-((1S,3R)-3-((6-(1-methyl-1H-pyrazol-4-yl)pyrazolo[1,5-a]pyrazin-4-yl)oxy)cyclopentyl)acrylamide]: below 1000 nM; for `C=CC(=O)N1CCC[C@@H](Oc2nc(-c3cnn(C)c3)cn3nccc23)CC1` [Example 29, (R)-1-(4-((6-(1-methyl-1H-pyrazol-4-yl)pyrazolo[1,5-a]pyrazin-4-yl)oxy)azepan-1-yl)prop-2-en-1-one]: below 1000 nM. Turning to `C=CC(=O)N(C)[C@H]1C[C@](C)(Oc2nc(-c3cnn(C)c3)cn3nccc23)C1` [Example 217, N-methyl-N-((1r,3r)-3-methyl-3-((6-(1-methyl-1H-pyrazol-4-yl)pyrazolo[1,5-a]pyrazin-4-yl)oxy)cyclobutyl)acrylamide], the IC50 in test [1] lay within 1000 to 10000 nM. With `Cn1cc(-c2cn3nccc3c(OC3CCN(C(=O)/C=C\CCl)CC3)n2)cn1` [Example 8, (Z)-4-chloro-1-(4-((6-(1-methyl-1H-pyrazol-4-yl)pyrazolo[1,5-a]pyrazin-4-yl)oxy)piperidin-1-yl)but-2-en-1-one], in test [1] (setting [3]), the IC50 lay in the range of 1000 to 10000 nM. For `C=CC(=O)N(C)C12CCCC(Oc3nc(-c4cnn(C)c4)cn4nccc34)(C1)C2` [Example 225, N-methyl-N-(5-((6-(1-methyl-1H-pyrazol-4-yl)pyrazolo[1,5-a]pyrazin-4-yl)oxy)bicyclo[3.1.1]heptan-1-yl)acrylamide], the concentration for half-maximal inhibition (IC50) in test [1] (setting [3]) was below 1000 nM. In the case of `C=CC(=O)N1C[C@@H]2C[C@@](C)(Oc3nc(-c4cnn(C)c4)cn4nccc34)[C@@H]2C1` [Example 199, 1-((1R,5S,6R)-6-methyl-6-((6-(1-methyl-1H-pyrazol-4-yl)pyrazolo[1,5-a]pyrazin-4-yl)oxy)-3-azabicyclo[3.2.0]heptan-3-yl)prop-2-en-1-one], the IC50 in test [1] (setting [3]) was in the range of 1000 to 10000 nM.
